From patent US6930110B2, “Substituted alkylaminopyridazinone derivatives, process for the preparation thereof and pharmaceutical composition containing the same” (Egis Gyogyszergyar Rt., priority 2001, dated 2005)
Structures can show the parent of a compound that is named as a salt. Where two headings read alike, the source gives them in different places.

How the values were obtained:
[1] = tested on: Male Sprague-Dawley rats; experiment: Elevated plus-maze test in rats; format: in vivo, rat; settings: 60 min after treatment, minimal effective dose regarding the time spent in the open arms
Description: Tests have been performed as described by Pellow and co-workers [J. Neurosci. Methods, 14, 149 (1985)]. A wooden cross, 15 cm wide with 100 cm long arms was used for the experiments. The sides and ends of two opposite arms of the cross were equipped with 40 cm high walls, however, the arms were open to the 15×15 cm central area (closed arms). The two other opposite arms were not encircled by walls (open arms).
Male Sprague-Dawley rats weighing 200-220 g were used for the experiments. The animals were placed in the central area of the equipment 60 min after treatment and the following four parameters have been observed for the 5 min test time: • time spent in the open arms, • time spent in the closed arms, • number of entries into the open arms, • number of entries into the closed arms.
The effect was expressed as percent increase in either the time (measured in sec) spent in the open arms or number of entries into the open arms. MEDs (minimal effective dose) were determined for each compound regarding the time spent in the open arms. Buspirone [8-{4-[4-(2-pyrimidinyl)-1-piperazinyl]butyl}-8-azaspiro[4,5]decane-7,9-dione] was used as the reference substance.

[2] = tested on: male Wistar rats; experiment: Vogel lick-conflict (drinking conflict) test; format: in vivo, rat; settings: intraperitoneally, 30 min prior to test, number of tolerated shocks
Protocol: Experiments were performed in a PC operated system (LIIKOSYS, Experimentria, Hungary) consisted of 8 test chambers (20 cm×20 cm×20 cm Plexiglas boxes) each of which was equipped with a water fountain system mounted at appropriate height on the wall of the chamber and metal grid floor for delivering electric shocks. 160-180 g male Wistar rats N=8) were deprived of drinking water 48 h and fasted for 24 h prior to test. Test and reference compounds or vehicle were administered intraperitoneally, 30 min prior to test. All procedures were carried out in a quiet, air-conditioned room between 07:30 and 13:00 h at an ambient temperature of 23±2° C. At the beginning of the test the animals were placed in the test chamber where they had free access to drinking water for a 30 s grace period. After that, electric shocks (600 μA, 0.6 s) were applied through the drinking spout following every 20 licks during the 5 min test period (Vogel et al, 1971). Number of punished licks were recorded and stored by an IBM compatible computer. Means±SEM of numbers of tolerated shocks were calculated in each group, statistical analysis of data was performed by one way ANOVA followed by Duncan's test ([…]). Diazepam [7-chloro-1,3-dihydro-1-methyl-5-phenyl-2H-1,4-benzodiazepine-2-one] was used as the reference substance.

[3] = tested on: mouse; experiment: Inhibition of spontaneous motor activity (sedative effect); format: in vivo
Protocol: The effect on spontaneous motor activity was investigated according to Borsy and co-workers [Borsy, J. et al, Arch. Int. Pharmacodyn., 124, 180-190 (1960)] in a ten channel Dews instrument, with 1-1 animal in each channel. Animals were placed into the instrument 60 min after per os treatment with either vehicle or test compound, and interruptions of infrared beams were recorded for 30 min. […] Inhibitory doses (ID50)have been determined by regression analysis. Diazepam was used as the reference substance.

[4] = tested on: male Wistar rats; experiment: Effects on blood pressure, radiotelemetry in conscious rats; settings: for Mean blood pressure after treatment with test compound (mmHg), Mean: mean arterial blood pressure for 6 hours after oral treatment; for Results of statistical evaluation: test compound compared to placebo, mean arterial blood pressure for 6 hours after treatment
Protocol: (§1) The experiments were performed in conscious, freely moving, male Wistar rats using a radiotelemetry system (Data Sciences International, St. Paul, Minn., USA). Prior to treatments rats were implanted with transmitters (type: TL11M2-C50-PXT) that permitted continues monitoring of arterial blood pressure. Under sterile surgical conditions, catheter of the transmitter was introduced into the abdominal aorta for measurement of arterial blood pressure and the transmitter was sutured to the abdominal wall of animals anaesthetised with pentobarbital-Na (60 mg/kg, i.p.; Nembutal inj. Phylaxia-Sanofi, Budapest). After surgery the animals were treated with an antibiotic (1 ml/kg i.m. Tardomyocel comp. inj. ad us. vet., Bayer A G, Leverkusen, Germany). A 7 day postoperative recovery period was allowed. Radio signals emitted by the transmitters were detected by RLA1000 type receivers placed under each animal's cage. The data were collected, saved and evaluated using the Dataquest IV. software from Data Sciences. The computer was set to sample the parameters for 10 seconds in every second minute.
(§2) The test substances or vehicle (methyl cellulose 0.4% w/v) were administered orally by gavage in a volume of 1 ml/kg at about 10 a.m. The effects of test items were measured for 6 hours. The effect of each compound was compared with that caused by vehicle treatment using two-way analysis of variance for repeated measures with Scheffe's post hoc test.

[5] = tested on: male Wistar rats; settings: rat, in vivo
Protocol: as §1, §2

[6] = per os, 60 min before test, interruptions of infrared beams recorded for 30 min

Row | SMILES | melting point [°C] | MED in mg/kg po. [1] [mg/kg] | MED in mg/kg ip. [2] [mg/kg] | further results
1 | O=c1[nH]ncc(Cl)c1NCCCN(CCOc1cccc2c1OCCO2)Cc1ccccc1 (as salt: hydrochloride) [Example 3, 4-{3-[benzyl-[2-(2,3-dihydrobenzo[1,4]dioxine-5-yloxy)ethyl]-amino]propylamino}-5-chloro-2H-pyridazine-3-one hydrochloride] | 207 to 209 | – | – | –
2 | O=c1[nH]nccc1NCCCNCCOc1cccc2c1OCCO2 (as salt: hydrochloride) [Example 9, 4-{3-[2-(2,3-dihydrobenzo[1,4]dioxine-5-yloxy)ethylamino]-propylamino}-2H-pyridazine-3-one] | 203 to 204 | – | – | –
3 | CN(CCN1CCN(c2cccc3c2OCCO3)CC1)c1cnn(C)c(=O)c1 (as salt: hydrochloride) [Example 16, 5-(2-(4-(2,3-dihydro-benzo[1,4]dioxine-5-yl)-piperazine-1-yl)-ethyl-methyl-amino)-2-methyl-2H-pyridazine-3-one-hydrochloride] | 249 to 251 | – | – | –
4 | O=C1CC2(CCCC2)CC(=O)N1CCCCN1CCN(c2ncccn2)CC1 [Buspirone, 8-{4-[4-(2-pyrimidinyl)-1-piperazinyl]butyl}-8-azaspiro[4,5]decane-7,9-dione, reference compound] | – | 3.0 | – | –
5 | CN1C(=O)CN=C(c2ccccc2)c2cc(Cl)ccc21 [Diazepam, 7-chloro-1,3-dihydro-1-methyl-5-phenyl-2H-1,4-benzodiazepine-2-one, reference compound] | – | – | 5.0 | ID50 in mg/kg po. [3, 6]: 7.0 mg/kg
6 | CCCN(CCCNc1c(Cl)cn[nH]c1=O)CCOc1cccc2c1OCCO2 [Example 2, 5-chloro-4-(3-{[2-(2,3-dihydrobenzo[1,4]dioxine-5-yloxy)-ethyl]propyl-amino}propylamino)-2H-pyridazine-3-one] | 87 to 89 | 10.0 | 20.0 | –
7 | O=c1[nH]ncc(Cl)c1NCCCN(CCOc1cccc2c1OCCO2)Cc1ccccc1 [Example 3, 4-{3-[benzyl-[2-(2,3-dihydrobenzo[1,4]dioxine-5-yloxy)ethyl]-amino]propylamino}-5-chloro-2H-pyridazine-3-one hydrochloride] | – | 10.0 | – | –
8 | O=c1[nH]ncc(Cl)c1NCCCCN1CCN(c2cccc3c2OCCO3)CC1 [Example 4, 5-chloro-4-{4-[4-(2,3-dihydrobenzo[1,4]dioxine-5-yl)-piperazine-1-yl]-butylamino}-2H-piridazine-3-one] | – | 1.0 | 20.0 | ID50 in mg/kg po. ([3]; in vivo, po): 30.0 mg/kg
9 | O=c1[nH]ncc(NCCN2CCN(c3cccc4c3OCCO4)CC2)c1Cl [Example 5, 4-chloro-5-{2-[4-(2,3-dihydrobenzo[1,4]dioxine-5-yl)-piperazin-1-yl]-ethylamino}-2H-pyridazine-3-one] | 217 to 219 | 0.003 | – | ID50 in mg/kg po. [3, 6]: 11.0 mg/kg
10 | Cn1ncc(NCCN2CCN(c3cccc4c3OCCO4)CC2)c(Cl)c1=O.O [Example 6, 4-chloro-5-{2-[4-(2,3-dihydro-1,4-benzodioxine-5-yl)-piperazine-1-yl]-ethylamino}-2-methyl-2H-piridazine-3-one monohydrate] | – | – | <5.0 | Mean blood pressure after treatment with test compound (mmHg), Mean [4]: 106.3 mmHg; Results of statistical evaluation [4]: N.S.
11 | CN(CCN1CCN(c2cccc3c2OCCO3)CC1)c1cn[nH]c(=O)c1Cl [Example 7, 4-chloro-5-{2-[4-(2,3-dihydrobenzo[1,4]dioxine-5-yl)-piperazine-1-yl]ethyl}methylamino-2H-pyridazine-3-one] | – | – | <10.0 | Results of statistical evaluation [5]: N.S.; Mean blood pressure after treatment with test compound (mmHg), Mean ([5]; po): 97.0 mmHg
12 | CC(C)(C)n1ncc(Cl)c(NCCN2CCN(c3cccc4c3OCCO4)CC2)c1=O [Example 8, 2-tert.-butyl-5-chloro-4-{2-[4-(2,3-dihydrobenzo-[1,4]dioxine-5-yl)piperazine-1-yl]ethylamino}-2H-pyridazine-3-one] | 177 to 178 | – | – | Mean blood pressure after treatment with test compound (mmHg), Mean [4]: 95.4 mmHg; Results of statistical evaluation [4]: N.S.
13 | O=c1[nH]nccc1NCCCNCCOc1cccc2c1OCCO2 [Example 9, 4-{3-[2-(2,3-dihydrobenzo[1,4]dioxine-5-yloxy)ethylamino]-propylamino}-2H-pyridazine-3-one] | – | 0.3 | – | ID50 in mg/kg po. [3, 6]: >30.0 mg/kg
14 | O=c1cc(NCCN2CCN(c3cccc4c3OCCO4)CC2)cn[nH]1 [Example 10, 5-{2-[4-(2,3-dihydro-1,4-benzodioxine-5-yl)-piperazine-1-yl]-ethylamino}-2H-pyridazine-3-one] | 244 to 246 | 0.01 | 5.0 | ID50 in mg/kg po. [3, 6]: 53.3 mg/kg
15 | O=c1cc(NCCN2CCN(c3cc(Cl)cc4c3OCCO4)CC2)cn[nH]1 [Example 11, 5-{2-[4-(7-chloro-2,3-dihydrobenzo[1,4]dioxine-5-yl)-piperazine-1-yl]ethylamino}-2H-pyridazine-3-one] | 115 to 117 | – | 20.0 | Mean blood pressure after treatment with test compound (mmHg), Mean [4]: 101.5 mmHg; Results of statistical evaluation [4]: N.S.
16 | O=c1cc(NCCCN2CCN(c3cccc4c3OCCO4)CC2)cn[nH]1 [Example 12, 5-{3-[4-(2,3-dihydro-1,4-benzodioxine-5-yl)piperazine-1-yl]-propylamino}-2H-pyridazine-3-one] | 158 to 160 | – | – | Mean blood pressure after treatment with test compound (mmHg), Mean [4]: 89.9 mmHg; Results of statistical evaluation [4]: N.S.
17 | O=c1cc(NCCNCCOc2cccc3c2OCCO3)cn[nH]1 [Example 13, 5-{2-[2-(2,3-dihydrobenzo[1,4]dioxine-5-yloxy)ethylamino)-ethylamino)-2H-pyridazine-3-one] | 81 to 83 | – | – | –
18 | Cn1ncc(NCCN2CCN(c3cccc4c3OCCO4)CC2)cc1=O [Example 14, 5-{2-[4-(2,3-dihydro1,4-benzodioxine-5-yl)-piperazine-1-yl]-ethylamino}-2-methyl-2H-pyridazine-3-one] | 188 to 190 | – | – | –
19 | CN(CCN1CCN(c2cccc3c2OCCO3)CC1)c1cnn(C)c(=O)c1 [Example 16, 5-(2-(4-(2,3-dihydro-benzo[1,4]dioxine-5-yl)-piperazine-1-yl)-ethyl-methyl-amino)-2-methyl-2H-pyridazine-3-one-hydrochloride] | – | – | – | Mean blood pressure after treatment with test compound (mmHg), Mean [4]: 105.2 mmHg; Results of statistical evaluation [4]: N.S.
20 | CN(CCN1CCN(c2cccc3c2OCCO3)CC1)c1cnn(C)c(=O)c1Cl [Example 17, 4-chloro-5-({2-[4-(2,3-dihydro-benzo[1,4]dioxine-5-yl)-piperazine-1-yl]-ethyl}-methyl-amino)-2-methyl-2H-pyridazine-3-one] | 114 to 116 | – | – | –
